Test results from US9637469B2, “Pyridine derivative” (Teijin Pharma Limited, priority 2012, dated 2017).
Each block holds one compound with its values, some of them ahead of it.

Assays:
[1] = test system: Cebus apella; experiment: Test for drug efficacy in Cebus apella (uric acid excretion rate); type: in vivo; conditions: 3 mg/kg to 30 mg/kg in 0.5% methylcellulose into stomach via the nasal cavity, up to 24 hours
Experimental: A test compound (3 mg/kg to 30 mg/kg) prepared by suspending in a 0.5% methylcellulose solution was administered to Cebus apella into stomach via the nasal cavity using a disposable catheter and a syringe barrel. Blood samples were taken before administration and 30 minutes, 1 hour, 2 hours, 4 hours, 8 hours, 12 hours, and 24 hours after administration; and urine samples were collected for the time intervals of immediately to 4 hours after administration, from 4 hours to 8 hours after administration, from 8 hours to 16 hours after administration, and from 16 hours to 24 hours after administration. Concentrations of uric acid and creatinine in the blood and urine samples collected were measured by an automatic analyzer (JEOL Ltd.). Uric acid and creatine were measured using L-type Wako UA.F (Wako Pure Chemicals Industries, Ltd.) and L-type Creatine F (Wako Pure Chemicals Industries, Ltd.) respectively. Uric acid clearance was calculated from the uric acid concentrations in blood and urine and, similarly, creatinine clearance was calculated from the creatinine concentrations.

[2] = biological target: T1, human URAT1 (Homo sapiens, UniProt Q96S37); experiment: Test for inhibition of uric acid transport using human URAT1-expressing cells;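 for all read-outs here: three stars up to 0.2 µM two stars 0.2-2 µM one star 2-20 µM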; type: cell-based; conditions: HEK 293 cells expressing human URAT1, 14C-labeled uric acid 25 μM, uptake 37° C. for 5 min; for IC50: read-out: Inhibitory Activity (IC50 of uric acid transport inhibition)
T1 construct: Full-length cDNA of human URAT1 (hURAT1)
T1 sequence (Q96S37 1-553): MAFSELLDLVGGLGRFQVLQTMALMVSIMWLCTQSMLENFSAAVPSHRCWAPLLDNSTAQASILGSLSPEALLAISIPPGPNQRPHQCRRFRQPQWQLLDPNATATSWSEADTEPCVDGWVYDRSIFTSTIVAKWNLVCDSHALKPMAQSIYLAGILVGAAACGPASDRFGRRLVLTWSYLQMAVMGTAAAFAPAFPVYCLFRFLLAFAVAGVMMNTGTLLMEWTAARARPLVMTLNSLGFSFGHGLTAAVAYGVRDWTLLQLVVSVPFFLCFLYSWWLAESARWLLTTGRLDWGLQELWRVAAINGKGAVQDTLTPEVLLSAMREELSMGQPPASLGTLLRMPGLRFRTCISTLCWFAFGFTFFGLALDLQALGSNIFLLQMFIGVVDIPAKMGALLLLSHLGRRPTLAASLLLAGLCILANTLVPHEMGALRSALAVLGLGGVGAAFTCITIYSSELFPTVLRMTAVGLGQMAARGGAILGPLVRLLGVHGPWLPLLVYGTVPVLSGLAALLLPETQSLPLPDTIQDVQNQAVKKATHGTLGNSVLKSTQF
Outline: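 IC50 values reflect inhibition of ¹⁴C-uric acid uptake (25 μM final, 5 min, 37 °C) by compound. Cells were HEK293 stably expressing full-length human URAT1, preincubated in Na-gluconate-substituted HBSS. Radioactivity in lysates was expressed relative to DMSO control as 100%.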

Inhibitory Activity (IC50 of uric acid transport inhibition) [2]: * * *
SMILES: Cc1nc(-c2cncc(C(F)(F)F)c2)n(Cc2cc(Cl)ccc2Cl)c1C(=O)O [Compound A139, 1-(2,5-dichlorobenzyl)-4-methyl-2-(5-(trifluoromethyl)pyridin-3-yl)-1H-imidazole-5-carboxylic acid]
uricosuric effect (uric acid excretion rate) [1]: excellent uricosuric effect was confirmed

Inhibitory Activity (IC50 of uric acid transport inhibition) [2]: * * *
SMILES: O=C(O)c1c(C2CC2)nc(-c2cncc(Cl)c2)n1Cc1cc(Cl)ccc1Cl [Compound A147, 2-(5-chloropyridin-3-yl)-4-cyclopropyl-1-(2,5-dichlorobenzyl)-1H-imidazole-5-carboxylic acid]
uricosuric effect (uric acid excretion rate) [1]: excellent uricosuric effect was confirmed

Inhibitory Activity (IC50 of uric acid transport inhibition) [2]: * * *
SMILES: Cc1cncc(-c2nc(C)c(C(=O)O)n2Cc2cc(Cl)ccc2Cl)c1 [Compound A156, 1-(2,5-dichlorobenzyl)-4-methyl-2-(5-methylpyridin-3-yl)-1H-imidazole-5-carboxylic acid]
uricosuric effect (uric acid excretion rate) [1]: excellent uricosuric effect was confirmed

Inhibitory Activity (IC50 of uric acid transport inhibition) [2]: * * *
SMILES: Cc1nc(-c2cncc(Cl)c2)n(Cc2cccc3ccsc23)c1C(=O)O [Compound A233, 1-(benzo[b]thiophen-7-ylmethyl)-2-(5-chloropyridin-3-yl)-4-methyl-1H-imidazole-5-carboxylic acid]
uricosuric effect (uric acid excretion rate) [1]: excellent uricosuric effect was confirmed

Inhibitory Activity (IC50 of uric acid transport inhibition) [2]: * * *
SMILES: O=C(O)c1ccc(-c2cccnc2)n1Cc1cc(Cl)ccc1Cl [Compound B11, 1-(2,5-dichlorobenzyl)-2-(pyridin-3-yl)-1H-pyrrole-5-carboxylic acid]
uricosuric effect (uric acid excretion rate) [1]: excellent uricosuric effect was confirmed

Inhibitory Activity (IC50 of uric acid transport inhibition) [2]: * * *
SMILES: Cc1nc(Oc2cnccc2Br)n(Cc2cc(Cl)ccc2Cl)c1C(=O)O [Compound A258, 2-((4-bromopyridin-3-yl)oxy)-1-(2,5-dichlorobenzyl)-4-methyl-1H-imidazole-5-carboxylic acid]

Inhibitory Activity (IC50 of uric acid transport inhibition) [2]: * * *
SMILES: Cc1nc(-c2cncc([N+](=O)[O-])c2)n(Cc2cc(Cl)ccc2Cl)c1C(=O)O [Compound A167, 1-(2,5-dichlorobenzyl)-4-methyl-2-(5-nitropyridin-3-yl)-1H-imidazole-5-carboxylic acid]

Inhibitory Activity (IC50 of uric acid transport inhibition) [2]: * * *
SMILES: Cc1nc(Oc2cncc(Br)c2)n(Cc2cc(Cl)ccc2Cl)c1C(=O)O [Compound A251, 2-((5-bromopyridin-3-yl)oxy)-1-(2,5-dichlorobenzyl)-4-methyl-1H-imidazole-5-carboxylic acid]

Inhibitory Activity (IC50 of uric acid transport inhibition) [2]: * * *
SMILES: Cc1nc(-c2cncc(N3CCCC3)c2)n(Cc2cc(Cl)ccc2Cl)c1C(=O)O [Compound A166, 1-(2,5-dichlorobenzyl)-4-methyl-2-(5-(pyrrolidin-1-yl)pyridin-3-yl)-1H-imidazole-5-carboxylic acid]

IC50 [2]: 2 to 20 µM
SMILES: Cc1nc(-c2cncc(F)c2)n(C(C)c2cc(Cl)ccc2Cl)c1C(=O)O (stereo not drawn) [Compound A222]

Inhibitory Activity (IC50 of uric acid transport inhibition) [2]: * * *
SMILES: CS(=O)(=O)NC(=O)c1ccc(-c2cccnc2)n1Cc1cc(Cl)ccc1Cl [Compound B28, 1-(2,5-dichlorobenzyl)-N-(methylsulfonyl)-2-(pyridin-3-yl)-1H-pyrrole-5-carboxamide]

Inhibitory Activity (IC50 of uric acid transport inhibition) [2]: * *
SMILES: CCc1nc(-c2cncc(F)c2)n(Cc2cccc3ccccc23)c1C(=O)O [Compound A148, 4-ethyl-2-(5-fluoropyridin-3-yl)-1-(naphthalen-1-ylmethyl)-1H-imidazole-5-carboxylic acid]

Inhibitory Activity (IC50 of uric acid transport inhibition) [2]: * * *
SMILES: Cc1ccncc1Oc1nc(C)c(C(=O)O)n1Cc1cc(Cl)ccc1Cl [Compound A256, 1-(2,5-dichlorobenzyl)-4-methyl-2-((4-methylpyridin-3-yl)oxy)-1H-imidazole-5-carboxylic acid]

Inhibitory Activity (IC50 of uric acid transport inhibition) [2]: * * *
SMILES: Cc1nc(-c2cncc(Cl)c2)n(Cc2cc(C(F)(F)F)ccc2C(F)(F)F)c1C(=O)O [Compound A173, 1-(2,5-bis(trifluoromethyl)benzyl)-2-(5-chloropyridin-3-yl)-4-methyl-1H-imidazole-5-carboxylic acid]

More lines, now with the values behind:

SMILES: Cc1ccc(C)c(Cn2c(-c3cccnc3)nc(C)c2C(=O)O)c1 [Compound A1, 1-(2,5-dimehylbenzyl)-4-methyl-2-(pyridin-3-yl)-1H-imidazole-5-carboxylic acid]
uricosuric effect (uric acid excretion rate) [1]: excellent uricosuric effect was confirmed
Inhibitory Activity (IC50 of uric acid transport inhibition) [2]: * *

SMILES: O=C(O)c1c(C2CC2)nc(-c2cccnc2)n1Cc1cc(Cl)ccc1Cl [Compound A15, 4-cyclopropyl-1-(2,5-dichlorobenzyl)-2-(pyridin-3-yl)-1H-imidazole-5-carboxylic acid]
uricosuric effect (uric acid excretion rate) [1]: excellent uricosuric effect was confirmed
Inhibitory Activity (IC50 of uric acid transport inhibition) [2]: * * *

SMILES: Cc1nc(-c2cccnc2)n(Cc2csc3cccc(Cl)c23)c1C(=O)O [Compound A7, 1-((4-chlorobenzo[b]thiophen-3-yl)methyl)-4-methyl-2-(pyridin-3-yl)-1H-imidazole-5-carboxylic acid]
uricosuric effect (uric acid excretion rate) [1]: excellent uricosuric effect was confirmed
Inhibitory Activity (IC50 of uric acid transport inhibition) [2]: * *

SMILES: O=C(O)c1c(C2CC2)nc(-c2cccnc2)n1Cc1cccc2ccccc12 [Compound A11, 4-cyclopropyl-1-(napthalen-1-ylmethyl)-2-(pyridin-3-yl)-1H-imidazole-5-carboxylic acid]
Inhibitory Activity (IC50 of uric acid transport inhibition) [2]: * *

SMILES: C[S+]([O-])c1nc(-c2cccnc2)n(Cc2cc(Cl)ccc2Cl)c1C(=O)O (stereo not drawn) [Compound A106]
IC50 [2]: 2 to 20 µM

SMILES: Cc1ccc(Cn2c(-c3cccnc3)nc(C(C)C)c2C(=O)O)c2ccccc12 [Compound A25, 4-isopropyl-1-((4-methylnaphthalen-1-yl)methyl)-2-(pyridin-3-yl)-1H-imidazole-5-carboxylic acid]
Inhibitory Activity (IC50 of uric acid transport inhibition) [2]: * * *

SMILES: Clc1ccc(Cl)c(Cn2c(-c3nnn[nH]3)cnc2-c2cccnc2)c1 [Compound A110, 3-(1-(2,5-dichlorobenzyl)-5-(1H-tetrazol-5-yl)-1H-imidazol-2-yl)pyridine]
Inhibitory Activity (IC50 of uric acid transport inhibition) [2]: * *

SMILES: O=C(O)c1c(C(F)(F)F)nc(-c2cncc(F)c2)n1Cc1cc(Cl)ccc1Cl [Compound A136, 1-(2,5-dichlorobenzyl)-2-(5-fluoropyridin-3-yl)-4-(trifluoromethyl)-1H-imidazole-5-carboxylic acid]
Inhibitory Activity (IC50 of uric acid transport inhibition) [2]: * * *

SMILES: Cc1nc(-c2cccnc2)n(Cc2cc(F)cc(Cl)c2)c1C(=O)O [Compound A76, 1-(3-chloro-5-fluorobenzyl)-4-methyl-2-(pyridin-3-yl)-1H-imidazole-5-carboxylic acid]
Inhibitory Activity (IC50 of uric acid transport inhibition) [2]: * *

SMILES: CC(C)c1nc(-c2cccnc2)n(Cc2csc3cccc(Cl)c23)c1C(=O)O [Compound A37, 1-((4-chlorobenzo[b]thiophen-3-yl)methyl)-4-isopropyl-2-(pyridin-3-yl)-1H-imidazole-5-carboxylic acid]
Inhibitory Activity (IC50 of uric acid transport inhibition) [2]: * * *

SMILES: Cc1nc(-c2cccnc2)n(Cc2ccc(C)c3ccccc23)c1C(=O)O [Compound A17, 4-methyl-1-((4-methylnaphthalen-1-yl)methyl)-2-(pyridin-3-yl)-1H-imidazole-5-carboxylic acid]
Inhibitory Activity (IC50 of uric acid transport inhibition) [2]: * *
